Measurements reported in patent publication US8518958B2, “Pyrido [2,3-D] pyrimidines and their use as kinase inhibitors” (Forma Therapeutics, Inc., priority 2006, dated 2013).

Tests used:
[1] = molecular target: C-Raf Raf-1 (truncated), active (Homo sapiens, UniProt P04049, Y340D/Y341D); test: C-Raf kinase inhibition (MAPH assay / IMAP assay); conditions: read-out: Biochemical IC50 C-Raf
From the text: We characterized the in vitro inhibitory activity against protein kinases of compounds of the present invention by determining their IC50 values (see Table 2).
Kinase: C-Raf Raf-1 (truncated), active (Upstate; cat. no. 14-352)
Reaction Temperature: room temperature
Assay Plate: 96 well U bottom plate (Greiner, 650161)
MultiScreen-PH Plate: 96 well MAPH Filter Plates (Millipore, MAPHNOB50)
Filter Washing Solution: 0.75% H3PO4
Scintillation Liquid: Supermix Liquid Scintillator (PerkinElmer, 1200-439)
Negative Control (C−): 100 mM EDTA, no inhibitor
Positive Control (C+): no inhibitor
Reaction Buffer (Final Concentration):
Final Assay Concentrations:
Kinase: Use kinase conc. yielding 10% ATP turnover as determined in titration experiment.
Adenosine 5′-[γ-^33P]triphosphate: 12.5 μCi/ml (Amersham Biosciences, BF1000)
Substrate: Myelin Basic Protein 57.8 μM (Invitrogen, 13228-010)
Pipetting Sequence: • 1) Add 10 μl 4-fold concentrated substrate+4-fold concentrated ATP in 3-fold concentrated reaction buffer to each well of assay plate • 2) Add 10 μl […] concentrated inhibitor in 4% DMSO in H2O to each well except to C− and C+ wells (starting point: final inhibitor concentration 10 μM; IC50 determination based on dilution series) • 3) Add 10 μl 4% DMSO in H2O to C− and C+ wells • 4) Add 10 μl 500 mM EDTA in H2O to C− wells • 5) Add 10 μl 50 μCi/ml adenosine 5′-[γ-^33P]triphosphate in H2O to each well • 6) Add 10 μl […] concentrated kinase in Reaction Buffer to each well • 7) Incubate 1 hr at room temperature • 8) Add 10 μl 50 mM EDTA in H2O to each well except to C− wells • 9) Prepare MAPH plates by adding 200 μl 0.75% H3PO4 to each well • 10) Exhaust 0.75% H3PO4 using Millipore vacuum station • 11) Add 60 μl 0.75% H3PO4 to each well of MAPH filter plate • 12) Transfer 30 μl sample per well from assay plate to corresponding well of MAPH filter plate • 13) Incubate 30 min at room temperature • 14) Wash each well of MAPH filter plates 3× with 200 μl 0.75% H3PO4 using Millipore vacuum station • 15) Add 20 μl scintillation liquid to each well of MAPH filter plate • 16) Seal MAPH filter plate • 17) Store MAPH filter plate 30 min in darkness • 18) Quantify radioactivity using scintillation counter (MicroBeta, Perkin-Elmer)
Reaction Volume: 8.0108 μl
IMAP Incubation Time: 60 min
Assay Plate: 384 well U bottom, PP, black, low volume (Corning, 3676)
Compound Plate: 384 well U bottom, PS (Falcon, 3995)
IMAP Binding Buffer A: Molecular Devices, R7282
IMAP Binding Buffer B: Molecular Devices, R7283
IMAP Binding Reagent: Molecular Devices, R7207
Negative Control (C−): no kinase, no inhibitor
Reation buffer: 20 mM Hepes, pH 7.5 • 1 mM DTT • 10 mM MnCl2 • 0.01% Brij35
Kinase: Kinase conc. yielding 50% substrate turnover as determined in titration experiment • c-Raf (Upstate 14-352)
Substrate: 5F1-SGQLIDSMANSFV-NH2 400 nM (jpt Peptide Technologies GmbH, Berlin, Germany)
IMAP Binding Solution: 75% IMAP Binding Buffer A • 25% IMAP Binding Buffer B • IMAP Binding Reagent 1:800
Pipetting Sequence: • 1) Add 6 μl 1.33-fold concentrated substrate+1.33-fold concentrated ATP in 1-fold concentrated reaction buffer to each well of assay plate • 2) Add 10.8 nl 740-fold concentrated inhibitor in 100% DMSO to each well except to C− and C+ wells using pintool (CyBio, Jena, Germany) (starting point: final inhibitor concentration 10 μM; IC50 determination based on dilution series) • 3) Add 10.8 nl 100% DMSO to C− and C+ wells using pintool • 4) Add 2 μl reaction buffer to C− wells • 5) Add 2 μl 4-fold concentrated kinase in reaction buffer to each well except C− wells • 6) Incubate according to reaction time at room temperature • 7) Add 15 μl IMAP binding solution to each well • 8) Incubate according to IMAP incubation time at room temperature • 9) Measure fluorescence polarization (Analyst GT, Molecular Devices)

B-Raf delta1-415 = B-Raf delta1-415 (Homo sapiens, UniProt P15056); test: B-Raf kinase inhibition (MAPH filter plate, 33P-ATP, MEK1 substrate); conditions: read-out: Biochemical IC50 B-Raf
B-Raf delta1-415, sequence (P15056 416-766): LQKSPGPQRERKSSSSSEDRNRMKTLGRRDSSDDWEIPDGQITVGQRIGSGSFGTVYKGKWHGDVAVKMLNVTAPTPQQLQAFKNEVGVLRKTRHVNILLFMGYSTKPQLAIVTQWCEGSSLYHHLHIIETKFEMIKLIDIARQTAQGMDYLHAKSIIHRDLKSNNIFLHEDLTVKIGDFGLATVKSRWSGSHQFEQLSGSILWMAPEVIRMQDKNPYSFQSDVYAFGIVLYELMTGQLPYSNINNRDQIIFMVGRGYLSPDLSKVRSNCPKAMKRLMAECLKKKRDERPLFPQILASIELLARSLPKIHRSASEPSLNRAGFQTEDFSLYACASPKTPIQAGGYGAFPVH
Procedure, shortened: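 Radiometric filter-binding assay with B-Raf delta1-415 at a level giving 50% turnover, MEK1 substrate and 33P-ATP (12.5 μCi/ml) in 20 mM Mops pH 7.0 with Mg/Mn, 1 h at room temperature. Inhibitor dilution series from 10 μM; EDTA-stopped reactions captured on phosphocellulose filters, counted by scintillation for IC50.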

HT-29 tumor cells = test: Anti-proliferative activity, SRB assay; type: cell-based, human; conditions: Homo sapiens, HT-29, 72 h, 72 hours exposure, read-out: CELLULAR IC50 HT-29
Procedure, shortened: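 Cells at 3,000-15,000/well, plated 24 h before compound, exposed to a concentration range for 72 hours. Proliferation measured by SRB staining after cold TCA fixation, absorbance at OD570; IC50 estimated from % inhibition versus DMSO-treated cells.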

C-Raf Raf-1 (truncated), active, sequence (P04049 306-648 Y340D/Y341D): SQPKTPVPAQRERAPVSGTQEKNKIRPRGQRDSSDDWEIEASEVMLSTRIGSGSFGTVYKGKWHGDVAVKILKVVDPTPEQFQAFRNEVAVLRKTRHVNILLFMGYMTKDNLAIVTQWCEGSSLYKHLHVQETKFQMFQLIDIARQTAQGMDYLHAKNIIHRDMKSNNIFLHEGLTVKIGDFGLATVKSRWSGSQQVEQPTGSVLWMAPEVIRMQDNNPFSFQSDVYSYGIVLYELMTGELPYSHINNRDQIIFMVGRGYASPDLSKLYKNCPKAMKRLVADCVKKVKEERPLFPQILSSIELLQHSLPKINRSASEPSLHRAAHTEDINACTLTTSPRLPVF

SMILES	IC50 [1]	IC50 (B-Raf delta1-415)	IC50 (HT-29 tumor cells)
COn1c(=O)c(-c2c(Cl)cccc2Cl)cc2cnc(Nc3cccc(CN4CCCC4)c3)nc21 [Compound 21, 6-(2,6-Dichlorophenyl)-8-methoxy-2-(3-(pyrrolidin-1-yl)methylphenylamino)-pyrido[2,3-d]pyrimidin-7-one]	< 0.1 µM	< 0.5 µM	< 1 µM
COCCNc1ncc2cc(-c3c(Cl)cccc3Cl)c(=O)n(OC)c2n1 [Compound 48, 6-(2,6-Dichlorophenyl)-8-methoxy-2-methoxyethylamino-pyrido[2,3-d]pyrimidin-7-one]	< 0.1 µM	< 0.5 µM	> 10 µM
COc1ccc(OC)c(-c2cc3cnc(Nc4cccc(CO)c4)nc3n(OC)c2=O)c1 [Compound 44, 6-(2,5-Dimethoxyphenyl)-2-(3-hydroxymethylphenylamino)-8-methoxy-pyrido[2,3-d]pyrimidin-7-one]	< 0.1 µM	< 5 µM	> 10 µM
COn1c(=O)c(-c2c(C)cccc2C)cc2cnc(Nc3ccc(N4CCN(C)CC4)cc3)nc21 [Compound 38, 6-(2,6-Dimethylphenyl)-8-methoxy-2-(4-(4-methylpiperazino)-phenylamino)-pyrido[2,3-d]pyrimidin-7-one]	< 0.1 µM	< 0.1 µM	< 1 µM
COc1cccc(Nc2ncc3cc(-c4c(Cl)cccc4Cl)c(=O)n(OCCN(C)C)c3n2)c1 [Compound 77, 6-(2,6-Dichlorophenyl)-8-(2-dimethylaminoethyl)oxy-2-(3-methoxyphenyl)amino-pyrido[2,3-d]pyrimidin-7-one]	< 0.5 µM	< 0.1 µM	< 1 µM
COn1c(=O)c(-c2c(F)cccc2Cl)cc2cnc(Nc3ccc(OCCN(C)C)cc3)nc21 [Compound 8, 6-(2-Chloro-6-fluorophenyl)-8-methoxy-2-(4-(2-dimethylaminoethoxy)-phenylamino)-pyrido[2,3-d]pyrimidin-7-one]	< 0.1 µM	< 0.1 µM	< 1 µM
COn1c(=O)c(-c2c(F)cccc2Cl)cc2cnc(Nc3cccc(CO)c3)nc21 [Compound 15, 6-(2-Chloro-6-fluorophenyl)-8-methoxy-2-(3-hydroxymethylphenylamino)-pyrido[2,3-d]pyrimidin-7-one]	< 0.1 µM	< 0.1 µM	< 1 µM
O=c1c(-c2ccccc2Cl)cc2cnc(Nc3ccccc3)nc2n1OCC1CC1 [Compound 49, 6-(2-Chlorophenyl)-8-cyclopropylmethoxy-2-phenylamino-pyrido[2,3-d]pyrimidin-7-one]	< 0.1 µM	> 1 µM	< 10 µM
COc1cccc(Nc2ncc3cc(-c4c(Cl)cccc4Cl)c(=O)n(OCCCCN)c3n2)c1 [Compound 41, 8-(4-Aminobutoxy)-6-(2,6-dichlorophenyl)-2-(3-methoxyphenylamino)-pyrido[2,3-d]pyrimidin-7-one]	< 0.1 µM	< 0.5 µM	< 1 µM
NCCCCOn1c(=O)c(-c2c(Cl)cccc2Cl)cc2cnc(Nc3ccccc3)nc21 [Compound 34, 8-(4-Aminobutoxy)-6-(2,6-dichlorophenyl)-2-phenylamino-pyrido[2,3-d]pyrimidin-7-one]	< 0.1 µM	< 1 µM	< 1 µM

The remaining lines, values ahead:

IC50 [1]	IC50 (B-Raf delta1-415)	IC50 (HT-29 tumor cells)	SMILES
< 0.1 µM	< 0.5 µM	< 1 µM	COc1cccc(Nc2ncc3cc(-c4c(Cl)cccc4Cl)c(=O)n(OCCN)c3n2)c1 [Compound 70, 8-(2-Aminoethyl)oxy-6-(2,6-dichlorophenyl)-2-(3-methoxyphenyl)amino-pyrido[2,3-d]pyrimidin-7-one]
< 0.1 µM	< 0.1 µM	< 1 µM	COn1c(=O)c(-c2c(Cl)cccc2Cl)cc2cnc(Nc3ccc(CCO)cc3)nc21 [Compound 17, 6-(2,6-Dichlorophenyl)-8-methoxy-2-(4-(2-hydroxyethyl)-phenylamino)-pyrido[2,3-d]pyrimidin-7-one]
< 0.1 µM	< 5 µM	< 10 µM	COn1c(=O)c(-c2ccccc2)cc2cnc(Nc3cccc(CO)c3)nc21 [Compound 43, 2-(3-Hydroxymethylphenylamino)-8-methoxy-6-phenyl-pyrido[2,3-d]pyrimidin-7-one]
< 1 µM	> 1 µM	< 10 µM	COc1ccccc1-c1cc2cnc(Nc3ccc(OCCN(C)C)cc3)nc2n(OC)c1=O [Compound 50, 2-(4-(2-Dimethylaminoethoxy)-6-(2-methoxyphenyl)-phenylamino)-8-methoxy-pyrido[2,3-d]pyrimidin-7-one]
< 1 µM	< 1 µM	< 1 µM	COn1c(=O)c(-c2c(F)cccc2C(F)(F)F)cc2cnc(Nc3ccc(N4CCN(C)CC4)cc3)nc21 [Compound 53, 6-(2-Fluoro-6-trifluoromethyl-phenyl)-8-methoxy-2-(4-(4-methylpiperazino)-phenylamino)-pyrido[2,3-d]pyrimidin-7-one]
< 0.1 µM	< 0.5 µM	< 1 µM	COn1c(=O)c(-c2c(Cl)cccc2Cl)cc2cnc(Nc3cccc(S(N)(=O)=O)c3)nc21 [Compound 4, 6-(2,6-Dichlorophenyl)-8-methoxy-2-(3-sulfamoylphenylamino)-pyrido[2,3-d]pyrimidin-7-one]
< 0.1 µM	< 0.1 µM	< 1 µM	COc1cccc(Nc2ncc3cc(-c4c(Cl)cccc4Cl)c(=O)n(OCCO)c3n2)c1 [Compound 73, 6-(2,6-Dichlorophenyl)-8-(2-hydroxyethyl)oxy-2-(3-methoxyphenyl)amino-pyrido[2,3-d]pyrimidin-7-one]
< 0.1 µM	< 0.5 µM	< 10 µM	COCCNc1ncc2cc(-c3cc(NC(=O)c4ccccc4)ccc3Cl)c(=O)n(OC)c2n1 [Compound 33]
< 0.1 µM	< 0.5 µM	< 1 µM	COn1c(=O)c(-c2ccccc2Cl)cc2cnc(Nc3cccc(S(N)(=O)=O)c3)nc21 [Compound 6, 6-(2-Chlorophenyl)-8-methoxy-2-(3-sulfamoylphenylamino)-pyrido[2,3-d]pyrimidin-7-one]
< 0.1 µM	< 0.1 µM	< 1 µM	COc1cccc(Nc2ncc3cc(-c4c(F)cccc4Cl)c(=O)n(OC[C@@H](O)CO)c3n2)c1 [Compound 75, 6-(2-Chloro-6-fluorophenyl)-8-(2-(S)-2,3-dihydroxypropyl)oxy-2-(3-methoxyphenyl)amino-pyrido[2,3-d]pyrimidin-7-one]
